In US20250320562A1, “ALTERNATIVELY SPLICED ISOFORM IN CANCER AND METHODS OF USE THEREOF” (THE CHILDREN'S HOSPITAL OF PHILADELPHIA, priority 2022, published 2025):

Columns and labels:
[1] = system: 697 cell line; assay: 6-MP dose-response in CRISPR/Cas9 NT5C2-KO model, 697; type: cell-based
Source text: (§1) FIG. 4: NT5C2 KO in MHHCALL4. (Top left panel) CRISPR/CAS9 strategy for the generation of total NT5C2 or NT5ex4a isoform specific KOs, representing the exons that will be targeted for each model. (Top right panel) Western-Blot of the NT5C2 levels on the parental, NT5C2-KO and NT5ex4a (E4a) KO models in the 697 and MHHCALL4 cell lines.

[2] = system: REH cells over-expressing the WT, E4a or R238W NT5C2 isoforms; assay: 6-MP chemoresistance in vivo in xenografted B-ALL cells expressing NT5C2 isoforms; design: species or system mice; settings: xenografted B-ALL cells expressing NT5ex4a
Source text: FIG. 5: NT5C2 E4a alternative isoform in 6-MP resistance. (Left panel) Bioluminescent mouse image of mice engrafted with REH cells over-expressing the WT, E4a or R238W NT5C2 isoforms at different time points. (Right panel) Flux quantification of mice engrafted with REH cells over-expressing the WT, E4a or R238W NT5C2 isoforms at different time points.
(§2) Consistent with this biochemical finding, in reconstituted NT5C2low B-ALL cells NT5ex4a conferred the same level of resistance to 6-MP as the variant with the R238W hotspot mutation (2-log difference in IC50). […] Therefore, inclusion of NT5C2 exon 4a phenocopies relapse-specific mutations and could serve as both a valuable predictive biomarker in B-ALL and potentially chronic myelogenous (CML) and acute myeloid leukemia (AML).

[3] = system: MHHCALL4 cell line; assay: 6-MP dose-response in CRISPR/Cas9 NT5C2-KO and NT5ex4a (E4a) KO models, MHHCALL4; type: cell-based
Source text: as §1, §2

[4] = system: reconstituted NT5C2low B-ALL cells; assay: Resistance to 6-MP in reconstituted NT5C2low B-ALL cells expressing NT5C2 isoforms; type: cell-based
Source text: FIGS. 8A-8C: Possible effects of phosphorylation of the NT5C2 activity. (FIG. 8A) Predicted serine and threonine phosphorylation sites in the NT5C2 amino acid sequence. […] (SEQ ID NOS: 5-24) (FIG. 8B) Top ten kinases predicted to phosphorylate the NT5C2 exon NT5ex4a-encoded peptide. (FIG. 8C) Increased pro-survival activity of NT5C2 E4a isoform where the Ser-121 has been replaced by a phosphomimetic aspartic acid (S121D). Compare curves with rectangles and triangles.
as §2
To determine the mechanism underlying the pro-survival activity of the NT5C2 E4a isoform, it was considered that it might be phosphorylated. Indeed, the application of predictive algorithms identified serine at position 121 as the residue in exon NT5ex4a most likely to be phosphorylated (FIG. 8A). Based on the amino acid context, it most strongly resembles consensus sites for kinases of the AGC, CAMK, and PIKK families. The latter includes such important cancer-related kinases as ATR and ATM (FIG. 8B). […]

[5] = system: B-ALL cells expressing NT5ex4a; assay: In vitro sensitivity to mizoribine of cells expressing the non-canonical NT5C2 isoform; type: cell-based; settings: expression of the non-canonical isoform NT5ex4a
Source text: FIG. 6: Mizoribine specifically blocks the […], adding extra pressure in NT5C2 hyperactive cells (Dieck et al., Blood, 2019). (Left panel) Mechanism of action of 6-MP and 6-TG purine analogs. (Right panel) Effects of NT5C2 activating-mutations on purine bases synthesis and degradation.
as §2

SMILES	sensitivity to 6-MP treatment (dose-response plots) [1]	chemoresistance in vivo [2]	cell survival in the presence of 6-MP ([3]; CRISPR/Cas9 engineered NT5ex4a KO cells)	sensitivity to 6-MP treatment (dose-response plots) ([3]; E4a-KO, E4a-high expression MHHCALL4)	sensitivity to 6-MP treatment (dose-response plots) ([3]; NT5C2-KO, MHHCALL4)	survival in the presence of 6-MP ([4]; E4a isoform with Ser-121 replaced by aspartic acid (S121D) versus parental E4a or the alanine derivative)	difference in IC50 (resistance to 6-MP) ([4]; NT5ex4a, same level of resistance as the R238W hotspot mutation variant, compared to the canonical isoform) [log]	sensitivity to mizoribine [5]
S=c1nc[nH]c2nc[nH]c12 [6-MP, mercaptopurine]	increased sensitivity	chemoresistance in vivo was further confirmed	reduced cell survival	increased sensitivity	increased sensitivity	stronger survival advantages	2	
NC(=O)c1ncn([C@@H]2O[C@H](CO)[C@@H](O)[C@H]2O)c1O [mizoribine, 4-carbamoyl-1-β-d-ribofuranosyl imirdozolium]								collateral sensitivity
